Assay results reported in US12484575B2, “Mosquito egg cryopreservation” (Sanaria Inc., priority 2019, dated 2025).

Experiments:
Anopheles eggs [1] = assay: Evaluation of low molecular weight CPAs and CPA concentrations for toxicity and egg viability; type: in vivo, Anopheles stephensi
Experimental: (§1) CPA was contained in a polypropylene 19 mm diameter×19 mm deep paint mixing pot (Michaels 10271583) embedded in a custom aluminum block machined to cover a Peltier-cooled block (Torrey Pines Scientific, IC22XT). CPA was equilibrated to temperature for >2 h prior to addition of eggs for the first incubation step at −6.8° C. Temperature was monitored using a digital thermometer with type-T thermocouple probe in a control sample in the block. Several relatively low molecular weight CPAs were evaluated at different concentrations for toxicity by incubation at 0° C. for up to 15 minutes, including: dimethylacetamide, dimethylformamide, dimethyl sulphoxide, ethanol, ethylene glycol, formamide, glycerol, H4-methanol (also referred to herein as “methanol”), D4 (deuterated)-methanol, D4/^13C-methanol, methylacetamide, propanediol, (sourced from SigmaAldrich); combinations in different ratios were also evaluated.
Percentages (v/v) of methanol and D4-methanol in water solutions were evaluated at between 50% and 100% aqueous CPA, namely, 50%, 70%, and 90%, and compared to CPA concentrations of 100%.

[2] = ambient temperatures; cited from earlier work
[3] = tested on: An. stephensi SD500 mosquito eggs; assay: Hatch rate of An. stephensi eggs after two-step CPA incubation, plunge into LN2 and thawing/dilution; type: in vivo, Anopheles stephensi; conditions: for Average ranked score of hatch rates (1 best to 4): thirteen experiments
Experimental: as §1

larvae of An. gambiae = conditions: used with common methodologies; cited from earlier work
Anopheles eggs [4] = conditions: 100% methanol, 20 minutes at −11° C., after subsequent cooling and warming/dilution
Experimental: Control eggs warmed/diluted from −11° C. (“Control”); eggs subsequently cooled in LN2 (“LN2”) before warming/dilution.
Once the first larval hatching was recorded, subsequent experiments recorded the percentage of larval hatch rate (number of larvae×100/number of eggs in the Petri dish) on day-3 post-thaw, and this was used as the measure of survival. In experiments measuring full development, the hatched larvae were fed standard larval food, pupae were harvested and transferred to rearing pans in 300×300×300 mm cages for adult mosquito emergence.

An. gambiae embryos = conditions: used as permeabilization reagents; cited from earlier work
[5] = 100% CPA, compared with 50%, 70%, 90%

Row | Compound | Viability of eggs (Anopheles eggs [1]; [5]) | Viability of eggs (Anopheles eggs [1]; CPA at 50% v/v in water) | Result among the CPAs evaluated (Anopheles eggs [1]; comparison of low molecular weight CPAs) | Viscosity increase relative to H4-methanol [2] | Average ranked score of hatch rates (1 best to 4) ([3]; LN2 plunge boiling −196° C.) | Average ranked score of hatch rates (1 best to 4) ([3]; LN2 plunge chilled −202° C.) | Hatch rates versus methanol ([3]; coupled with cooling by plunge into chilled LN2) | Toxicity to larvae (larvae of An. gambiae) | Tolerance by and permeation of untreated eggs (Anopheles eggs [1]; untreated Anopheles eggs) | Proportion of eggs hatched (Anopheles eggs [4]) [%] | Toxicity to embryos (An. gambiae embryos)
1 | [2H]OC([2H])([2H])[2H] [D4-Methanol, D4-methanol] | highest | a small percentage of viable eggs | best results | approximately 11% | 2.47 | 2.20 | marginally improved hatch rates |  |  |  | 
2 | OCCO [ethylene glycol, reference compound] |  |  |  |  |  |  |  | highly toxic |  |  | 
3 | CO [Methanol, methanol] | highest | a small percentage of viable eggs |  |  | 2.87 | 2.27 |  | highly toxic | tolerated by, and to permeate, untreated Anopheles eggs | 15.3±4.3 | 
4 | CCCCCCC [heptane] |  |  |  |  |  |  |  |  |  |  | extremely toxic to the embryos
